What is called IC50 is the concentration that inhibits the measured activity by half. High values mean lower potency, low ones higher potency.

The nature of assay [1]: Compound was tested for inhibition of chymotrypsinogen.
Assay [2] deals with T1, Capsid scaffolding protein (Human cytomegalovirus (strain AD169) (HHV-5) (Human herpesvirus 5), UniProt P16753).
T1 sequence (P16753 whole entry): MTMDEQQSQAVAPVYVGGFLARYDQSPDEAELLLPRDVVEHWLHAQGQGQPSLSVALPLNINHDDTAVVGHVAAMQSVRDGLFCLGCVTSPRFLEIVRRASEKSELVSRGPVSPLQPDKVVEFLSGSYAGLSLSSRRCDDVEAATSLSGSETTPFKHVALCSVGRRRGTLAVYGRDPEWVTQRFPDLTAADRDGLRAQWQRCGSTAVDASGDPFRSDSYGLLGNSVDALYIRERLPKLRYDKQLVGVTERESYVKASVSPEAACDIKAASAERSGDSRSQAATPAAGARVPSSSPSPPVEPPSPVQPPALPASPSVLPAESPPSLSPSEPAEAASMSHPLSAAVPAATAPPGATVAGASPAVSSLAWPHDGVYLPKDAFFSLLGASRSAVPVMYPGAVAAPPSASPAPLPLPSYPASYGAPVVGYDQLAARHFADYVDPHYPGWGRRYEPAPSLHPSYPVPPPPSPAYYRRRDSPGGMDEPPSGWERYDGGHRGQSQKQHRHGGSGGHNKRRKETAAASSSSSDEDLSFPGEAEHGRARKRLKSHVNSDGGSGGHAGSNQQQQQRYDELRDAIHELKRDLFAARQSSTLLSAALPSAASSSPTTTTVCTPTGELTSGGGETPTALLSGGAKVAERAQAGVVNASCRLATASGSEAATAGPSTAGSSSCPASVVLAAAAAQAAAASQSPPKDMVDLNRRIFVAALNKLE
The experiment in a line: Inhibitory concentration against HCMV protease. Type of assay: functional, Human herpesvirus 5 strain AD169.

The target of assay [3] is Serine protease 1 (Homo sapiens) (UniProt P07477). The assay is described as follows: Compound was tested for inhibition of trypsin.
A short description of assay [4]: Inhibitory concentration against elastase. Type of assay: functional.

Serine protease 1 (Homo sapiens), sequence (P07477 whole entry): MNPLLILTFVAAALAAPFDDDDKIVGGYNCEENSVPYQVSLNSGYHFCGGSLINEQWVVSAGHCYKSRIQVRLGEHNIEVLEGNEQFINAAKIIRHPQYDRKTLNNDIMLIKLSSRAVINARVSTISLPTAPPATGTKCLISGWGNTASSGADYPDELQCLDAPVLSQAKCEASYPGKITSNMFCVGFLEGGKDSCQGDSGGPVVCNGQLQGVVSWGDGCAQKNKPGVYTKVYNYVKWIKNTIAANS

With `O=C(O)c1ccc(C(=O)Nc2ccc3c(OCc4cccc(C(F)(F)F)c4)cccc3c2)cc1`, the Activity in assay [1] is above 50 µM; in assay [3], above 80 µM. Moreover, in assay [2], the IC50 was found to be 7.4 µM.

Regarding `O=C(Nc1ccc2c(/C=C/c3ccc4ccc(Cl)cc4n3)cccc2c1)NS(=O)(=O)c1ccc(Cl)cc1`, the IC50 in assay [2] amounted to 4.7 µM.

In assay [2], `O=C(O)c1ccc(C(=O)Nc2ccc3c(/C=C/c4cccc(C(F)(F)F)c4)cccc3c2)cc1` registered a half-maximal inhibitory concentration (IC50) of 6.9 µM.

For the molecule `CS(=O)(=O)Nc1ccc2c(/C=C/c3ccc4cc(Cl)ccc4n3)cccc2c1`, the 50% inhibitory concentration (IC50) in assay [2] is above 50 µM.

As for `O=C(O)c1ccc(C(=O)Nc2ccc3c(COc4cccc(Cl)c4)cccc3c2)cc1`, in assay [2], the IC50 amounted to 15.3 µM. This counts as double-digit micromolar.

Consider `O=C(Nc1ccc2c(/C=C/c3ccc4cc(Cl)ccc4n3)cccc2c1)Oc1ccccc1`, for which the 50% inhibitory concentration (IC50) in assay [2] is above 50 µM.

In the case of `O=C(Nc1ccc2c(/C=C/c3ccc4ccc(Cl)cc4n3)cccc2c1)c1ccccc1`, in assay [2], the half-maximal inhibitory concentration (IC50) is above 50 µM.

For the molecule `O=S(=O)(Nc1ccc2c(/C=C/c3ccc4ccccc4n3)cccc2c1)C(F)(F)F`, the concentration for half-maximal inhibition (IC50) in assay [4] was above 50 µM; in assay [2] it was 9.5 µM.

For `COc1cccc(/C=C/c2cccc3cc(NS(=O)(=O)C(F)(F)F)ccc23)c1`, the half-inhibitory concentration (IC50) in assay [4] was above 50 µM; in assay [2], 6.6 µM.

With `O=C(O)c1ccc(CNc2ccc3c(COc4ccccc4)cccc3c2)cc1`, the Activity in assay [1] was above 50 µM; in assay [3], above 80 µM. The IC50 in assay [2] amounted to 4.8 µM.

With `O=C(O)c1ccc(C(=O)Nc2ccc3c(OCc4cccc(Br)c4)cccc3c2)cc1`, the Activity was above 50 µM in assay [1] and above 80 µM in assay [3]. This molecule had an IC50 in assay [2] of 6.1 µM.

Molecule `O=C(O)c1ccc(C(=O)Nc2ccc3c(/C=C/c4ccc5ccc(Cl)cc5n4)cccc3c2)cc1` returned a concentration for half-maximal inhibition (IC50) in assay [2] of 17.4 µM.

Consider `O=C(O)c1ccc(CNc2ccc3c(/C=C/c4cccc(C(F)(F)F)c4)cccc3c2)cc1`, for which the IC50 in assay [2] amounted to 6.9 µM. This IC50 lies about 2.5-fold lower than the previous one.

On to `O=S(=O)(Nc1ccc2c(/C=C/c3cc(Cl)c4ccccc4n3)cccc2c1)C(F)(F)F`, for which the concentration for half-maximal inhibition (IC50) in assay [4] is above 50 µM; in assay [2] it was 10.5 µM.

For `CN(C)c1ccc2nc(/C=C/c3cccc4cc(NS(=O)(=O)C(F)(F)F)ccc34)ccc2c1`, the IC50 in assay [4] is above 50 µM; in assay [2], 3.7 µM.

Regarding `O=S(=O)(Nc1ccc2c(/C=C/c3ccc4ccccc4c3)cccc2c1)C(F)(F)F`, the IC50 was above 50 µM in assay [4] and 15 µM in assay [2].

As for `O=C(O)c1ccc(CNc2ccc3c(/C=C/c4ccc5ccc(Cl)cc5n4)cccc3c2)cc1`, in assay [2], half-maximal inhibition (IC50) required 2.7 µM.

Consider `O=C(Nc1ccc2c(/C=C/c3ccc4ccc(Cl)cc4n3)cccc2c1)NS(=O)(=O)c1ccccc1`, for which, in assay [2], it took 6.7 µM to reach half-maximal inhibition (IC50).

With `O=S(=O)(Nc1ccc2c(/C=C/c3ccc4cc(Cl)ccc4n3)cccc2c1)C(F)(F)F`, the IC50 was above 50 µM in assay [4] and 3.2 µM in assay [2].

Take `Cc1ccc(S(=O)(=O)NC(=O)Nc2ccc3c(/C=C/c4ccc5ccc(Cl)cc5n4)cccc3c2)cc1`: the IC50 in assay [2] amounted to 8.3 µM.

In turn, `O=S(=O)(Nc1ccc2c(/C=C/c3ccccn3)cccc2c1)C(F)(F)F` yielded an Activity in assay [1] above 160 µM. Moreover, the IC50 is above 50 µM in assay [4] and 66 µM in assay [2].

In the case of `O=S(=O)(Nc1ccc2c(/C=C/c3ccccc3)cccc2c1)C(F)(F)F`, the IC50 in assay [4] was above 50 µM; in assay [2] it was 7.5 µM.

`O=C(O)c1ccc2c(/C=C/c3ccc4ccccc4n3)cccc2c1` yielded an IC50 in assay [2] above 50 µM.

The molecule `CN(c1ccc2c(/C=C/c3ccc4cc(Cl)ccc4n3)cccc2c1)S(=O)(=O)C(F)(F)F` had a half-inhibitory concentration (IC50) in assay [2] above 50 µM.

For the molecule `O=C(O)c1ccc(CNc2ccc3c(COc4ccc(Br)cc4)cccc3c2)cc1`, the Activity in assay [1] was above 50 µM; in assay [3], above 80 µM. Moreover, in assay [2], the 50% inhibitory concentration (IC50) was determined as 2.8 µM.

For the molecule `O=S(=O)(Nc1ccc2c(/C=C/c3cccc(C(F)(F)F)c3)cccc2c1)C(F)(F)F`, the figures for the IC50 in assay [4] and in assay [2] were above 50 µM and 6.5 µM, respectively.

As for `O=C(O)c1ccc(C(=O)Nc2ccc3c(COc4cccc(C(F)(F)F)c4)cccc3c2)cc1`, in assay [2], 15.2 µM corresponded to half-maximal inhibition (IC50).

For the molecule `O=C(O)c1ccc(C(=O)Nc2ccc3c(OCc4cccc(Cl)c4)cccc3c2)cc1`, the results for the Activity in assay [1] and in assay [3] were above 50 µM and above 80 µM, respectively. In assay [2], this molecule returned a half-maximal inhibitory concentration (IC50) of 5.1 µM.

Regarding `O=C(O)c1ccc(C(=O)Nc2ccc3c(COc4ccc(Br)cc4)cccc3c2)cc1`, in assay [2], the IC50 came to 21.3 µM.

Take `COc1ccc2nc(/C=C/c3cccc4cc(NS(=O)(=O)C(F)(F)F)ccc34)ccc2c1`: the IC50 in assay [4] was above 50 µM; in assay [2], 3.4 µM.

Regarding `O=S(=O)(Nc1ccc2c(/C=C/c3ccc4ccc(Cl)cc4n3)cccc2c1)C(F)(F)F`, the IC50 in assay [4] is above 50 µM; in assay [2], 15.1 µM.

Turning to `O=S(=O)(Nc1ccc2c(/C=C/c3ccc4cccc(Cl)c4n3)cccc2c1)C(F)(F)F`, the IC50 in assay [4] is above 50 µM; in assay [2], 3.2 µM.

Turning to `O=S(=O)(Nc1ccc2c(/C=C/c3ccc(Cl)cc3)cccc2c1)C(F)(F)F`, the values for the 50% inhibitory concentration (IC50) in assay [4] and in assay [2] were above 50 µM and 4.3 µM, respectively.

Turning to `Cc1ccc2nc(/C=C/c3cccc4cc(NS(=O)(=O)C(F)(F)F)ccc34)ccc2c1`, the IC50 was above 50 µM in assay [4] and 6.3 µM in assay [2].

Consider `O=C(O)c1ccc(CNc2ccc3c(COc4cccc(Cl)c4)cccc3c2)cc1`, for which the Activity in assay [1] was above 50 µM; in assay [3] it was above 80 µM. For the same molecule, the IC50 in assay [2] was 3.1 µM.

`CC(=O)Nc1ccc2c(/C=C/c3ccc4cc(Cl)ccc4n3)cccc2c1`: the IC50 in assay [2] was determined as 43 µM.

In turn, `Nc1ccc2c(/C=C/c3ccc4ccc(Cl)cc4n3)cccc2c1` displayed a half-maximal inhibitory concentration (IC50) in assay [2] above 50 µM.
